The test deals with T1, human A2a receptor (Homo sapiens, UniProt P29274).
T1 construct: purchased Perkin-Elmer RBHA2AM400UA; host or cells: HEK293 cells (membranes)
As to the kind of experiment: A2a competition binding assay, Scintillation Proximity technology. The following applies: membranes from HEK293 cells expressing human A2a receptor; for Ki: Ki by Cheng-Prusoff equation. Summed up: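 Membranes from HEK293 cells expressing human A2a, adenosine deaminase-treated, incubated 1 h at room temperature with compound (3000 to 0.15 nM) and 0.5 nM tritiated pyrazolotriazolopyrimidine radioligand on WGA SPA beads in Ca/Mg-free PBS + 10 mM MgCl2. Non-specific binding with 1 μM CGS15943; Ki by Cheng-Prusoff.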
In general terms: In a scintillation proximity assay essentially only radioactivity close to the scintillant gives light.

Each structure is given as a SMILES string.

T1 sequence (P29274 whole entry): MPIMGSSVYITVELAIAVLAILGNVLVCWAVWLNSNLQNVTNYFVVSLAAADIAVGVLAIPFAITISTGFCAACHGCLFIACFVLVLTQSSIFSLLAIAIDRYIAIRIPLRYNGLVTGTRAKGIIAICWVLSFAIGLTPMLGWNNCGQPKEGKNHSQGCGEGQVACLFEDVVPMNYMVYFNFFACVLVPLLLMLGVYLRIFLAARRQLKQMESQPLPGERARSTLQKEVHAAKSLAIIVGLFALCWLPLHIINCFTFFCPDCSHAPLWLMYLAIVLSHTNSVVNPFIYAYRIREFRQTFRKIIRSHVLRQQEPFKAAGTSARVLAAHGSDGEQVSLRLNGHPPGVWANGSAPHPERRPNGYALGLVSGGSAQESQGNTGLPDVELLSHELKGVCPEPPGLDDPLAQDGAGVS

Take `Cc1nc(C(=O)NCc2cc(C(F)(F)F)cc(Cl)n2)c(N)nc1-c1ncco1` [Ex-54, 3-amino-N-{[6-chloro-4-(trifluoromethyl)pyridin-2-yl]methyl}-6-methyl-5-(1,3-oxazol-2-yl)pyrazine-2-carboxamide]: the Ki – broadly, a measure of affinity in units of concentration, obtained from inhibition or displacement – was 1.77 nM. As for `Cc1nc(C(=O)NC2CCCC(O)CC2)c(N)nc1-c1ncco1` (single isomer, unassigned) [Ex-165B, 3-amino-N-(4-hydroxycycloheptyl)-6-methyl-5-(1,3-oxazol-2-yl)pyrazine-2-carboxamide], the Ki stood at 2.12 nM. Consider `N#Cc1nc(C(=O)NCc2ncccc2C(F)(F)F)c(N)nc1-c1ncco1` [Ex-386, 3-amino-6-cyano-5-(1,3-oxazol-2-yl)-N-{[3-(trifluoromethyl)pyridin-2-yl]methyl}pyrazine-2-carboxamide], for which the affinity, expressed as Ki, was 0.3 nM. As for `Cc1nc(C(=O)NC2CCc3ccc(Cl)nc32)c(N)nc1-c1ncco1` (single isomer, unassigned) [Ex-245A, 3-amino-N-(2-chloro-6,7-dihydro-5H-cyclopenta[b]pyridin-7-yl)-6-methyl-5-(1,3-oxazol-2-yl)pyrazine-2-carboxamide], the Ki worked out at 6.69 nM. Still for that read-out and setting: with `Cc1nc(C(=O)NCc2cnco2)c(N)nc1-c1ncco1` [Ex-39, 3-amino-6-methyl-5-(1,3-oxazol-2-yl)-N-(1,3-oxazol-5-ylmethyl)pyrazine-2-carboxamide] the figure was 33.9 nM; with `Cc1nc(C(=O)NC2CCCN(CC(F)(F)F)C2)c(N)nc1-c1ncco1` (centres unmarked) [Ex-116, 3-amino-6-methyl-5-(1,3-oxazol-2-yl)-N-[1-(2,2,2-trifluoroethyl)piperidin-3-yl]pyrazine-2-carboxamide], 21.4 nM. With `Cc1nc(C(=O)NCc2nccn2C)c(N)nc1-c1ncco1` [Ex-15, 3-amino-6-methyl-N-[(1-methyl-1H-imidazol-2-yl)methyl]-5-(1,3-oxazol-2-yl)pyrazine-2-carboxamide], the affinity, expressed as Ki, was 1.25 nM. For `Nc1nc(-n2nccn2)c(Cl)nc1C(=O)NCc1ncc[nH]1` [Ex-321, 3-amino-6-chloro-N-(1H-imidazol-2-ylmethyl)-5-(2H-1,2,3-triazol-2-yl)pyrazine-2-carboxamide], the affinity corresponds to a Ki of 70.2 nM. Turning to `Cc1cnn(-c2nc(N)c(C(=O)N[C@H](CO)c3ccccc3)nc2Cl)c1` [Ex-349, 3-amino-6-chloro-N-[(1S)-2-hydroxy-1-phenylethyl]-5-(4-methyl-1H-pyrazol-1-yl)pyrazine-2-carboxamide], the affinity corresponds to a Ki of 180 nM.

Take `Cc1nc(C(=O)NCc2cccc(N(C)C)n2)c(N)nc1-c1ncco1` [Ex-21, 3-amino-N-{[6-(dimethylamino)pyridin-2-yl]methyl}-6-methyl-5-(1,3-oxazol-2-yl)pyrazine-2-carboxamide]: the affinity corresponds to a Ki of 0.934 nM. Regarding `CN1CCC(NC(=O)c2nc(Cl)c(-n3nccn3)nc2N)c2ccccc21` (centres unmarked) [Ex-322, 3-amino-6-chloro-N-(1-methyl-1,2,3,4-tetrahydroquinolin-4-yl)-5-(2H-1,2,3-triazol-2-yl)pyrazine-2-carboxamide], the Ki turned out to be 61.9 nM. For the compound `Cc1cnn(-c2nc(N)c(C(=O)NCc3cnn4ccccc34)nc2Cl)c1` [Ex-362, 3-amino-6-chloro-5-(4-methyl-1H-pyrazol-1-yl)-N-(pyrazolo[1,5-a]pyridin-3-ylmethyl)pyrazine-2-carboxamide], the Ki was 143 nM. The compound `CCOc1cccc(F)c1CNC(=O)c1nc(C)c(-c2ncco2)nc1N` [Ex-173, 3-amino-N-(2-ethoxy-6-fluorobenzyl)-6-methyl-5-(1,3-oxazol-2-yl)pyrazine-2-carboxamide] returned a Ki of 0.191 nM. In the case of `Cc1nc(C(=O)NCc2ccncn2)c(N)nc1-c1ncco1` [Ex-76, 3-amino-6-methyl-5-(1,3-oxazol-2-yl)-N-(pyrimidin-4-ylmethyl)pyrazine-2-carboxamide], affinity was put at a Ki of 50.1 nM. Still for that read-out and setting: the result for `Cc1nc(C(=O)NCc2cccc3c2ncn3CC(F)(F)F)c(N)nc1-c1ncco1` [Ex-181, 3-amino-6-methyl-5-(1,3-oxazol-2-yl)-N-{[1-(2,2,2-trifluoroethyl)-1H-benzimidazol-4-yl]methyl}pyrazine-2-carboxamide] reads 1.3 nM; that for `Nc1nc(-n2nccn2)c(Cl)nc1C(=O)NCc1cccc2cccnc12` [Ex-273, 3-amino-6-chloro-N-(quinolin-8-ylmethyl)-5-(2H-1,2,3-triazol-2-yl)pyrazine-2-carboxamide], 2.23 nM; that for `CCOC(=O)c1nc(C)c(-n2nccn2)nc1N` [Ex-276, ethyl 3-amino-6-methyl-5-(2H-1,2,3-triazol-2-yl)pyrazine-2-carboxylate], 408 nM. `Cc1nc(C(=O)NCc2ccc(F)cc2F)c(N)nc1-c1cnco1` [Ex-253, 3-amino-N-(2,4-difluorobenzyl)-6-methyl-5-(1,3-oxazol-5-yl)pyrazine-2-carboxamide]: the Ki turned out to be 8.57 nM. Compound `Cc1nc(C(=O)N(C)C(C)c2ccccn2)c(N)nc1-c1ncco1` (centres unmarked) [Ex-106, 3-amino-N,6-dimethyl-5-(1,3-oxazol-2-yl)-N-(1-pyridin-2-ylethyl)pyrazine-2-carboxamide] displayed a Ki of 252 nM. As to `Cc1nc(C(=O)NC2CCOc3ccccc32)c(N)nc1-c1ncco1` (stereo in doubt) [Ex-145, 3-amino-N-[(4R)-3,4-dihydro-2H-chromen-44-yl]-6-methyl-5-(1,3-oxazol-2-yl)pyrazine-2-carboxamide], the Ki turned out to be 4.22 nM. Same read-out and setting: the result for `Cc1cc(Cl)cc(Cl)c1CNC(=O)c1nc(C)c(-c2cnco2)nc1N` [Ex-258, 3-amino-N-(2,4-dichloro-6-methylbenzyl)-6-methyl-5-(1,3-oxazol-5-yl)pyrazine-2-carboxamide] reads 2.9 nM. Consider `Cc1nc(C(=O)NCc2cccc3cccnc23)c(N)nc1-c1ncco1` [Ex-9, 3-amino-6-methyl-5-(1,3-oxazol-2-yl)-N-(quinolin-8-ylmethyl)pyrazine-2-carboxamide], for which the Ki was 0.64 nM. In addition, the midpoint of the response (0.5 nM tritiated ligand), the EC50, lay at 2.1 nM.

`Cc1nc(C(=O)NCc2ccc3ccccc3n2)c(N)nc1-c1ncco1` [Ex-33, 3-amino-6-methyl-5-(1,3-oxazol-2-yl)-N-(quinolin-2-ylmethyl)pyrazine-2-carboxamide] registered a Ki of 2.8 nM. With `Cc1nc(C(=O)NC2CCc3c(Cl)ccnc32)c(N)nc1-c1ncco1` (single isomer, unassigned) [Ex-244B, 3-amino-N-(4-chloro-6,7-dihydro-5H-cyclopenta[b]pyridin-7-yl)-6-methyl-5-(1,3-oxazol-2-yl)pyrazine-2-carboxamide], the affinity, expressed as Ki, was 1.28 nM. For `Nc1nc(-n2nccn2)c(Cl)nc1C(=O)NCc1nc2ccccc2s1` [Ex-298, 3-amino-N-(1,3-benzothiazol-2-ylmethyl)-6-chloro-5-(2H-1,2,3-triazol-2-yl)pyrazine-2-carboxamide], affinity was put at a Ki of 32.9 nM. Compound `Cc1nc(C(=O)NCC(C)(C)c2ccncc2)c(N)nc1-c1ncco1` [Ex-60, 3-amino-6-methyl-N-(2-methyl-2-pyridin-4-ylpropyl)-5-(1,3-oxazol-2-yl)pyrazine-2-carboxamide] gave a Ki of 9.2 nM.

`COCCNC(=O)c1nc(C)c(-c2ncco2)nc1N` [Ex-123, 3-amino-N-(2-methoxyethyl)-6-methyl-5-(1,3-oxazol-2-yl)pyrazine-2-carboxamide] displayed a Ki of 17.4 nM. Regarding `Cc1nc(C(=O)NC2CC(O)c3cccnc32)c(N)nc1-c1ncco1` (centres unmarked) [Ex-240B, 3-amino-N-(5-hydroxy-6,7-dihydro-5H-cyclopenta[b]pyridin-7-yl)-6-methyl-5-(1,3-oxazol-2-yl)pyrazine-2-carboxamide], the Ki was determined as 1.73 nM. Turning to `Cc1nc(C(=O)NCc2nccnc2C(F)(F)F)c(N)nc1-c1ncco1` [Ex-215, 3-amino-6-methyl-5-(1,3-oxazol-2-yl)-N-{[3-(trifluoromethyl)pyrazin-2-yl]methyl}pyrazine-2-carboxamide], the Ki came to 1.44 nM. `Cc1nc(C(=O)NCc2cccn(CC(F)F)c2=O)c(N)nc1-c1ncco1` [Ex-91, 3-amino-N-{[1-(2,2-difluoroethyl)-2-oxo-1,2-dihydropyridin-3-yl]methyl}-6-methyl-5-(1,3-oxazol-2-yl)pyrazine-2-carboxamide] had an inhibition constant Ki of 2.93 nM.

`Cc1nc(C(=O)NCc2c(F)cccc2F)c(N)nc1-c1ncco1` [Ex-11, 3-amino-N-(2,6-difluorobenzyl)-6-methyl-5-(1,3-oxazol-2-yl)pyrazine-2-carboxamide]: affinity was put at a Ki of 0.125 nM. `Cc1nc(C(=O)NCc2ncc(C(F)(F)F)cn2)c(N)nc1-c1ncco1` [Ex-126, 3-amino-6-methyl-5-(1,3-oxazol-2-yl)-N-{[5-(trifluoromethyl)pyrimidin-2-yl]methyl}pyrazine-2-carboxamide]: the Ki was found to be 83 nM. In the case of `Nc1nc(-n2cccn2)c(Cl)nc1C(=O)NCc1ccccc1C(F)(F)F` [Ex-329, 3-amino-6-chloro-5-(1H-pyrazol-1-yl)-N-[2-(trifluoromethyl)benzyl] pyrazine-2-carboxamide], the Ki turned out to be 8.6 nM.

Compound `Cc1nccnc1CNC(=O)c1nc(C)c(-c2ncco2)nc1N` [Ex-195, 3-amino-6-methyl-N-[(3-methylpyrazin-2-yl)methyl]-5-(1,3-oxazol-2-yl)pyrazine-2-carboxamide] showed a Ki of 1.71 nM. For the compound `Nc1nc(-n2cncn2)c(Cl)nc1C(=O)NCc1ccc(F)cc1F` [Ex-328, 3-amino-6-chloro-N-(2,4-difluorobenzyl)-5-(1H-1,2,4-triazol-1-yl)pyrazine-2-carboxamide], the inhibition constant Ki came out at 627 nM. Regarding `CCOc1cccnc1CNC(=O)c1nc(C)c(-c2ncco2)nc1N` [Ex-167, 3-amino-N-[(3-ethoxypyridin-2-yl)methyl]-6-methyl-5-(1,3-oxazol-2-yl)pyrazine-2-carboxamide], the Ki was found to be 0.158 nM. `Cc1nc(C(=O)NCc2cccc(O)c2)c(N)nc1-c1ncco1` [Ex-158, 3-amino-N-(3-hydroxybenzyl)-6-methyl-5-(1,3-oxazol-2-yl)pyrazine-2-carboxamide] gave a Ki of 1.97 nM.

Source of the values: US10472347B2, “Aminopyrazine compounds with A2A antagonist properties” (Merck Sharp & Dohme Corp., priority 2014, dated 2019).
